# Source: patent US10709709B2, “Substituted carbonucleoside derivatives useful as anticancer agents” (Pfizer Inc., priority 2016, dated 2020)
# pIC50: −log10 of the molar value.
# Target: PRMT5/MEP50 protein complex (Homo sapiens (Human), UniProt O14744)
# Test: PRMT5 biochemical assay (3H-SAM methylation of H4(1-21) peptide, filter plate scintillation)
# Conditions: 10 nM PRMT5/MEP50 complex, 200 nM H4(1-21) peptide, 1 uM SAM, 25 minute incubation at room temperature
# Experimental: Biochemical Assay Methods
# Compounds were solubilized in DMSO and serially diluted, using 3-fold dilutions, into 100% DMSO at a concentration 50-fold greater than the desired assay concentration. Following dilution, 1 ul was added to an empty 96-well microtiter plate. PRMT5/MEP50 protein complex was combined with H4(1-21) peptide ([…]) in PRMT5 assay buffer (50 mM Tris pH 8.5, 50 mM NaCl, 5 mM MgCl2, 1 mM EDTA, 1 mM TCEP) and 44 ul was added to the microtiter plate containing compound. S-Adenosyl-L-methionine (SAM) was prepared by combining ^3H labelled SAM with unlabelled SAM in PRMT5 assay buffer such that the final SAM concentration was 10 uM and the specific activity was 0.2 uCi/ul. The reaction was initiated by adding 5 ul of SAM stock to the microtiter plate. The final reaction conditions were 10 nM PRMT5/MEP50 complex, 200 nM peptide and 1 uM SAM. Following a 25 minute incubation at room temperature, the reaction was stopped with the addition of 100 uL of 20% TCA. The 3H-peptide product was captured using a 96-well filter plate (MSIPN4B, Millipore) and washed 5 times with PBS buffer. Scintillation fluid (100 ul) was added to the dried filter plate and counted in a liquid scintillation counter. IC50 values were determined by fitting the data to the standard 4-parameter dose response equation using Pfizer proprietary software.
# Results for the biochemical assay of examples are summarized in Table 1, shown as IC50 values in μM.
# PRMT5/MEP50 protein complex, sequence (O14744 other isoform, or with tags, fused parts or gaps): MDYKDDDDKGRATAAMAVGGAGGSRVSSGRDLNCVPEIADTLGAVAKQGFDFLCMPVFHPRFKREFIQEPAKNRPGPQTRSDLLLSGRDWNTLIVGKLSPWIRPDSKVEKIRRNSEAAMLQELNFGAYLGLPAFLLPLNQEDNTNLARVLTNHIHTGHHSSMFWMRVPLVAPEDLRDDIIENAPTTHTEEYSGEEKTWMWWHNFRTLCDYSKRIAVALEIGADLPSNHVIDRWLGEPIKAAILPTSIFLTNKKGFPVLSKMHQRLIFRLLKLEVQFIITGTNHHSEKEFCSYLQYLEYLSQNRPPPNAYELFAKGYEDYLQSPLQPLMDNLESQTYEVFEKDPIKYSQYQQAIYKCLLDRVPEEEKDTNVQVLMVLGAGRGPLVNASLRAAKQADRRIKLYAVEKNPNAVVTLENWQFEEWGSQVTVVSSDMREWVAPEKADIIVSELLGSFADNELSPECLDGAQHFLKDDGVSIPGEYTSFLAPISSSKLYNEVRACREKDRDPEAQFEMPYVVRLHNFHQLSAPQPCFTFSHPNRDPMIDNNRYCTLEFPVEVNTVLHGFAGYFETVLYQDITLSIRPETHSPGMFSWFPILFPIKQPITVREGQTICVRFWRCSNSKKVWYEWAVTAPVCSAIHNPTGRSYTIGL
# PRMT5/MEP50 protein complex, sequence (Q9BQA1 whole entry partner): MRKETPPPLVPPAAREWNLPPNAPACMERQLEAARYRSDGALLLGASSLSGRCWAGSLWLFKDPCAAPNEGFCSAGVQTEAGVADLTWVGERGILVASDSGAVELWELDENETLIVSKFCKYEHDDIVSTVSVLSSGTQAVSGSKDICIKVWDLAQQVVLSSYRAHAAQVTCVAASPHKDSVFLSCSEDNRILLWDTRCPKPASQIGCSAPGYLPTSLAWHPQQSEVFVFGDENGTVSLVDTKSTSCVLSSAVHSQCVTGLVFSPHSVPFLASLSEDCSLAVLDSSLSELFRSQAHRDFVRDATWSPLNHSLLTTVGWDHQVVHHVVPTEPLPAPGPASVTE
row,SMILES,pIC50
1,"CN(c1ncnc(N)n1)[C@@H]1C[C@H]([C@@H](O)c2ccc(F)c(F)c2)[C@@H](O)[C@H]1O [Example 38, (1R,2S,3R,5R)-3-[(4-amino-1,3,5-triazin-2-yl)(methyl)amino]-5-[(R)-(3,4-difluorophenyl)(hydroxy)methyl]cyclopentane-1,2-diol]",4.80
2,"Cc1ncnc2c1ccn2[C@@H]1C[C@H]([C@@H](O)c2ccc(F)cc2)[C@@H](O)[C@H]1O [Example 10, (1S,2R,3R,5R)-3-[(R)-(4-fluorophenyl) (hydroxy)methyl]-5-(4-methyl-7H-pyrrolo[2,3-d]pyrimidin-7-yl)cyclopentane-1,2-diol]",6.03
3,"CN1Cc2cccc(O[C@H]3C[C@@H](n4cc(F)c5c(N)ncnc54)[C@H](O)[C@@H]3O)c2C1 [Example 115, (1S,2S,3R,5S)-3-(4-amino-5-fluoro-7H-pyrrolo[2,3-d]pyrimidin-7-yl)-5-[(2-methyl-2,3-dihydro-1H-isoindol-4-yl)oxy]cyclopentane-1,2-diol]",6.83
4,"CN(c1ccnc(N)n1)[C@@H]1C[C@H]([C@@H](O)c2ccc(F)c(F)c2)[C@@H](O)[C@H]1O [Example 40, (1R,2S,3R,5R)-3-[(2-aminopyrimidin-4-yl)(methyl)amino]-5-[(R)-(3,4 difluorophenyl)(hydroxy)methyl] cyclopentane-1,2-diol]",5.69
5,"Cc1ncnc2c1ccn2[C@@H]1C[C@H](Oc2cc(-c3cnco3)cc3c2CNCC3)[C@@H](O)[C@H]1O [Example 170, (1S,2S,3R,5S)-3-(4-methyl-7H-pyrrolo[2,3-d]pyrimidin-7-yl)-5-((6-(oxazol-5-yl)-1,2,3,4-tetrahydroisoquinolin-8-yl)oxy)cyclopentane-1,2-diol]",9.00
6,"Cc1ncnc2c1ccn2[C@@H]1C[C@H](C(F)(CN)c2ccc(F)cc2)[C@@H](O)[C@H]1O (stereo partly drawn) [Example 50, (1S,2R,3S,5R)-3-[2-amino-1-fluoro-1-(4-fluorophenyl)ethyl]-5-(4-methyl-7H-pyrrolo[2,3-d]pyrimidin-7-yl)cyclopentane-1,2-diol]",4.72

# More lines, now with the values ahead:
row,pIC50,SMILES
1,5.24,"CO[C@H]1C[C@@H](n2ccc3c(C)ncnc32)[C@H](O)[C@@H]1O (racemic) [Example 59, (+/−)-(1S,2S,3S,5R)-3-methoxy-5-(4-methyl-7H-pyrrolo[2,3-d]pyrimidin-7-yl)cyclopentane-1,2-diol]"
2,7.15,"Nc1ncnc2c1ccn2[C@@H]1C[C@H]([C@@H](O)c2ccc(Cl)c(F)c2)[C@@H](O)[C@H]1O [Example 24, (1R,2S,3R,5R)-3-(4-amino-7H-pyrrolo[2,3-d]pyrimidin-7-yl)-5-((R)-(4-chloro-3-fluorophenyl)(hydroxy)methyl)cyclopentane-1,2-diol]"
3,8.10,"Cc1ncnc2c1ccn2[C@@H]1C[C@H](Oc2cc(F)c(F)cc2OCCN)[C@@H](O)[C@H]1O [Example 152, (1S,2S,3S,5R)-3-(2-(2-aminoethoxy)-4,5-difluorophenoxy)-5-(4-methyl-7H-pyrrolo[2,3-d]pyrimidin-7-yl)cyclopentane-1,2-diol]"
4,4.87,"Cc1ncnc2c1ccn2[C@@H]1C[C@H](Oc2ccc(F)cc2C(N)=O)[C@@H](O)[C@H]1O [Example 70, 2-(((1S,2S,3S,4R)-2,3-dihydroxy-4-(4-methyl-7H-pyrrolo[2,3-d]pyrimidin-7-yl)cyclopentyl)oxy)-5-fluorobenzamide]"
5,6.01,"Cc1ncnc2c1ccn2[C@@H]1C[C@H](Oc2cccc3c2C(N)CCC3)[C@@H](O)[C@H]1O (single isomer, unassigned) [Example 187]"
6,5.57,"Cc1nccc(N(C)[C@@H]2C[C@H]([C@@H](O)c3ccc(F)c(F)c3)[C@@H](O)[C@H]2O)n1 [Example 36, (1S,2R,3R,5R)-3-[(R)-(3,4-difluorophenyl)(hydroxy)methyl]-5-[methyl(2-methylpyrimidin-4-yl)amino] cyclopentane-1,2-diol]"
